The source of these data is patent US20110319362A1, “STAT3 LIGANDS AND THERAPEUTIC USES THEREOF” (priority 2008, published 2011).

Where two headings read alike, the source gives them in different places. Where a SMILES comes first, the peptide text is derived from it. [ ]: non-standard residue; d: D form. The star is where a group is joined. 5FAM = O=C1OC2(c3ccc(O)cc3Oc3cc(O)ccc32)c2ccc(C(=O)*)cc21; pY = N[C@@H](Cc1ccc(OP(=O)(O)O)cc1)C(=O)O; βAla = NCCC(=O)O

Test [1] concerns the target T1, STAT3 protein (Homo sapiens, UniProt P40763).
T1 construct: human STAT3 protein (residues 122-722) fused to His-tag; His-tag
In words: In vitro competitive STAT3 binding assay (fluorescence polarization). An excerpt: To quantitatively determine the binding affinities of STAT3 inhibitors to STAT3 protein, a sensitive and quantitative in vitro binding assay was developed based upon fluorescence polarization (FP) method. For this FP assay, 5-carboxyfluorescein (5-Fam) was coupled to a phosphopeptide (phospho-Tyr-Leu-Pro-Gln-Thr-Val-amide) with two beta-alanine and one glycine residues as the spacer between 5-Fam and the phosphopeptide to obtain 5-Fam-beta-Ala-beta-Ala-Gly-phospho-Tyr-Leu-Pro-Gln-Thr-Val-amide as the fluorescently tagged tracer, which was named as STT2 peptide. […] The recombinant human STAT3 protein (residues 122-722) fused to His-tag was stable and soluble.
Competitive binding experiments were carried out using 150 nM of STAT3 protein and 5 nM of STT2 peptide with different concentrations of a tested STAT3 inhibitor. For each experiment, two controls were included. One control contained STAT3 protein and STT2 peptide, and the second control contained STT2 peptide only. The polarization values were measured after 2-3 hours of incubation using an ULTRA READER (Tecan U.S. Inc., Research Triangle Park, N.C.). IC50 values, the inhibitor concentration at which 50% of the fluorescently tagged STT2 peptide is displaced by STAT3 inhibitors, was determined from a plot using nonlinear least-squares analysis using GRAPHPAD PRISM software (GraphPad Software, Inc., San Diego, Calif.). […]

Test [2] relates to MDA-MB-231 cancer cell line. Nature of the test: Cell growth assay (WST-8). As to conditions: Homo sapiens, MDA-MB-231, 96 h, WST-8, 4 days. Format: cell-based. How it is done: (§1) The effect of STAT3 compounds on cell growth was evaluated by a WST-8 [2-(2-methoxy-4-nitrophenyl)-3-(4-nitrophenyl)-5-(2,4-disulfophenyl)-2H-tetrazolium, monosodium salt assay (Dojindo Molecular Technologies, Inc). Cells (3000-4000 cells in each well) were cultured in 96-well tissue culture plates in medium (200 μL) containing various concentrations of STAT3 compounds for 4 days. At the end of incubation, WST-8 dye (20 μL) was added to each well and incubated for an additional 1-3 h, and then the absorbance was measured in a microplate reader (Molecular Devices) at 450 nm. Cell growth inhibition was evaluated as the ratio of the absorbance of the sample to that of the control.

Test [3] concerns MDA-MB-468 cancer cell line. In words: Cell growth assay (WST-8). Format: cell-based. As to conditions: Homo sapiens, MDA-MB-468, 96 h, WST-8, 4 days. The protocol:
as §1

Setting [4] is: read-out: Inhibition of cell growth IC50, MDA-MB-231 cancer cell line.
The mark [5] stands for this setting: read-out: Inhibition of cell growth IC50, MDA-MB-468 cancer cell line.
[6] abbreviates: FP competitive binding, fluorescently tagged STT2 peptide tracer, read-out: Binding affinities to STAT3 IC50.
[7] abbreviates: Table 2 prints no column heads, columns and unit as in Table 1, read-out: Inhibition of cell growth IC50, MDA-MB-231 cancer cell line (pro-drugs, Table 2).
[8] abbreviates: Table 2 prints no column heads, columns and unit as in Table 1, read-out: Inhibition of cell growth IC50, MDA-MB-468 cancer cell line (pro-drugs, Table 2).

T1 sequence (P40763 122-722): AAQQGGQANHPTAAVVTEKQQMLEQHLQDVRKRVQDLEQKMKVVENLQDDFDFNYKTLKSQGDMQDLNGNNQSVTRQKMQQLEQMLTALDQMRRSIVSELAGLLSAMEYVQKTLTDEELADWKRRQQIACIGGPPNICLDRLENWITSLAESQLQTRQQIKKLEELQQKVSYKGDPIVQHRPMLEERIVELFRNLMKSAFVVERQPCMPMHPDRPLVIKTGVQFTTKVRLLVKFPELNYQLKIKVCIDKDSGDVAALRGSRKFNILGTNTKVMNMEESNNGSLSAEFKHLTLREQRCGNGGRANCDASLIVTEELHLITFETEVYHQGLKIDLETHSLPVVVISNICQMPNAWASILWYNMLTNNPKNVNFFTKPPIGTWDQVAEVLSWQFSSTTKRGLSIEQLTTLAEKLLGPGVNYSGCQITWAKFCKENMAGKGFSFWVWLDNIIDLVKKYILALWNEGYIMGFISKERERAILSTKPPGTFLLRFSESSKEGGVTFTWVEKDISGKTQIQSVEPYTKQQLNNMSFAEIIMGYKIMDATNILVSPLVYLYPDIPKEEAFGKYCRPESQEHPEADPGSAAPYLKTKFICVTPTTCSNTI

Take `O=C(CC[C@H](NC(=O)[C@@H]1CCC2CCCC[C@H](NC(=O)[C@H](Cc3ccc(OP(=O)(O)O)cc3)NC(=O)OCc3ccccc3)C(=O)N21)C(=O)NCc1ccccc1)NC(c1ccccc1)(c1ccccc1)c1ccccc1` (some centres unmarked): the IC50 in test [1] is < 20 µM; in test [2] (setting [4]) it was < 50 µM; in test [3] (setting [5]) it was < 50 µM. As to `NC(=O)CC[C@H](NC(=O)[C@@H]1CCC2CCCC[C@H](NC(=O)[C@H](Cc3ccc(OP(=O)(O)O)cc3)NC(=O)CCOCCOCCOCCOCCNC(=O)CCCCC3SCC4NC(=O)NC43)C(=O)N21)C(=O)NCc1ccccc1` (some centres unmarked), the IC50 in test [1] was < 1 µM.

As to `NC(=O)CC[C@H](NC(=O)[C@@H]1CCC2CCNC[C@H](NC(=O)[C@@H](N)Cc3ccc(OP(=O)(O)O)cc3)C(=O)N21)C(=O)NCc1ccccc1` (some centres unmarked), the IC50 in test [1] is < 100 µM; in test [2] (setting [4]), > 100 µM; in test [3] (setting [5]), > 100 µM. `CCCCCCCCN(CCCCCCCC)[C@@H](Cc1ccc(OP(=O)(O)O)cc1)C(=O)N[C@H]1CCCCC2CC[C@@H](C(=O)N[C@@H](CCC(N)=O)C(=O)NCc3ccccc3)N2C1=O` (some centres unmarked): the IC50 in test [1] (setting [6]) is < 100 µM; in test [2] (setting [4]), > 100 µM.

As for `CCCCCCCCCCCCCCCCN1CCN(CCC(=O)N[C@@H](Cc2ccc(OP(=O)(O)O)cc2)C(=O)N[C@H]2CCCCC3CC[C@@H](C(=O)NCCc4nnn[nH]4)N3C2=O)CC1` (some centres unmarked), the IC50 in test [2] (setting [4]) and in test [3] (setting [5]) was < 50 µM in each case. `CC(C)(C)C(=O)OCOP(=O)(Cc1ccc(C[C@H](NC(=O)OCC2c3ccccc3-c3ccccc32)C(=O)N[C@H]2CCCCC3CC[C@@H](C(=O)N[C@@H](CCC(N)=O)C(=O)NCc4ccccc4)N3C2=O)cc1)OCOC(=O)C(C)(C)C` (some centres unmarked): the IC50 in test [2] (setting [7]) and in test [3] (setting [8]) was < 10 µM each time. In the case of `CC(C)(C)C(=O)OCOP(=O)(COc1ccc(C[C@H](NC(=O)OCc2ccccc2)C(=O)N[C@H]2CCCCC3CC[C@@H](C(=O)N[C@@H](CCC(N)=O)C(=O)NCc4ccccc4)N3C2=O)cc1)OCOC(=O)C(C)(C)C` (some centres unmarked), the IC50 in test [2] (setting [7]) and in test [3] (setting [8]) was > 50 µM each time.

In the case of `CC(C)(C)C(=O)OCOP(=O)(O)COc1ccc(C[C@H](NC(=O)OCc2ccccc2)C(=O)N[C@H]2CCCCC3CC[C@@H](C(=O)N[C@@H](CCC(N)=O)C(=O)NCc4ccccc4)N3C2=O)cc1` (some centres unmarked), the IC50 in test [2] (setting [7]) and in test [3] (setting [8]) was > 50 µM in each case.

As for `CC(C)(C)C(=O)OCOP(=O)(OCOC(=O)C(C)(C)C)C(F)(F)c1ccc(/C=C/C(=O)N[C@H]2CCCCC3CC[C@@H](C(=O)NCCc4cn[nH]c4)N3C2=O)cc1` (some centres unmarked), in test [3] (setting [8]), the IC50 was < 30 µM. For the molecule `CC(C)(C)C(=O)OCOP(=O)(OCOC(=O)C(C)(C)C)C(F)(F)c1ccc(/C=C/C(=O)N[C@H]2CCCCC3CC[C@@H](C(=O)N[C@@H](CCC(N)=O)C(=O)NCc4ccccc4)N3C2=O)cc1` (some centres unmarked), in test [3] (setting [8]), the 50% inhibitory concentration (IC50) is > 100 µM. With `CCCCCCCCCCCCCCCCOP(=O)(OCCCCCCCCCCCCCCCC)C(F)(F)c1ccc2cc(C(=O)N[C@H]3CCCC[C@H]4CC[C@@H](C(=O)NCCc5cn[nH]c5)N4C3=O)[nH]c2c1`, the IC50 in test [3] (setting [8]) is > 100 µM. On the same count and under the same terms, to `CCCCCCCCCCCCCCCCOP(=O)(OCCCCCCCCCCCCCCCC)C(F)(F)c1ccc2cc(C(=O)N[C@H]3CCCC[C@H]4CC[C@@H](C(=O)N(CC)CC)N4C3=O)[nH]c2c1` belongs > 100 µM; to `CCCCCCCCCCCCCCCCOP(=O)(OCCCCCCCCCCCCCCCC)C(F)(F)c1ccc2cc(C(=O)N[C@H]3CCCC[C@H]4CC[C@@H](C(=O)NC(CCC(N)=O)C(=O)NCc5ccccc5)N4C3=O)[nH]c2c1` (some centres unmarked), < 30 µM. Still for that read-out and setting: the value for `CCCCCCCCCCCCCCCCOP(=O)(O)C(F)(F)c1ccc2cc(C(=O)N[C@H]3CCCC[C@H]4CC[C@@H](C(=O)NCCc5cn[nH]c5)N4C3=O)[nH]c2c1` was > 100 µM; that for `CCCCCCCCCCCCCCCCOP(=O)(O)C(F)(F)c1ccc2cc(C(=O)N[C@H]3CCCC[C@H]4CC[C@@H](C(=O)NC(CCC(N)=O)C(=O)NCc5ccccc5)N4C3=O)[nH]c2c1` (some centres unmarked) was > 50 µM. `CC(=O)N[C@@H](Cc1ccc(OCP(=O)(O)O)cc1)C(=O)N[C@H]1CCCCC2CC[C@@H](C(=O)N[C@@H](CCC(N)=O)C(=O)NCc3ccccc3)N2C1=O` (stereo in doubt) [Example 31]: the results for the IC50 in test [1] and in test [2] (setting [4]) were < 10 µM and > 100 µM, respectively. As to `CCOP(=O)(O)CCCCCC(=O)N[C@H]1CCCC[C@H]2CC[C@@H](C(=O)N[C@@H](CCC(N)=O)C(=O)NCc3ccccc3)N2C1=O` [Example 23], the IC50 in test [1] (setting [6]) and in test [2] (setting [4]) was > 100 µM throughout.

For `CC(=O)N[C@@H](Cc1ccc(CP(=O)(O)O)cc1)C(=O)N[C@H]1CCCC[C@H]2CC[C@@H](C(=O)N[C@@H](Cc3c[nH]cn3)C(=O)NCc3ccccc3)N2C1=O` [Example 27], the values for the IC50 in test [1] and in test [2] (setting [4]) were > 10 µM and > 100 µM, respectively.

On to `CN(C)[C@@H](Cc1ccc(CP(=O)(O)O)cc1)C(=O)N[C@H]1CCCC[C@H]2CC[C@@H](C(=O)N[C@@H](Cc3c[nH]cn3)C(=O)NCc3ccccc3)N2C1=O` [Example 28], for which the IC50 in test [1] (setting [6]) is > 10 µM; in test [3] (setting [5]), > 100 µM.

As to `NC(=O)CC[C@H](NC(=O)[C@@H]1CCC2CCCC[C@H](NC(=O)c3cc4cc(C(F)(F)P(=O)(O)O)ccc4[nH]3)C(=O)N21)C(=O)NCc1ccccc1` (some centres unmarked) [Example 59], the results for the IC50 in test [1] and in test [3] (setting [5]) were < 1 µM and > 100 µM, respectively. Take `Cn1c(C(=O)N[C@H]2CCCCC3CC[C@@H](C(=O)NC(CCC(N)=O)C(=O)NCc4ccccc4)N3C2=O)cc2cc(C(F)(F)P(=O)(O)O)ccc21` (some centres unmarked) [Example 61]: the IC50 in test [1] (setting [6]) is < 5 µM; in test [3] (setting [5]), > 100 µM. With `CCOP(=O)(OCC)C(F)(F)c1ccc2c(c1)cc(C(=O)N[C@H]1CCCCC3CC[C@@H](C(=O)NC(CCC(N)=O)C(=O)NCc4ccccc4)N3C1=O)n2C` (some centres unmarked) [Example 62], the IC50 in test [3] (setting [8]) is > 100 µM. As for `CC(C)(C)C(=O)OCOP(=O)(OCOC(=O)C(C)(C)C)C(F)(F)c1ccc2[nH]c(C(=O)N[C@H]3CCCCC4CC[C@@H](C(=O)NCCc5cn[nH]c5)N4C3=O)cc2c1` (some centres unmarked) [Example 63], the IC50 in test [3] (setting [8]) is < 50 µM. The same measure, in the same setting: the value for `CC(C)(C)C(=O)OCOP(=O)(OCOC(=O)C(C)(C)C)C(F)(F)c1ccc2[nH]c(C(=O)N[C@H]3CCCCC4CC[C@@H](C(=O)NC(CCC(N)=O)C(=O)NCc5ccccc5)N4C3=O)cc2c1` (some centres unmarked) [Example 64] was > 100 µM. On to `NC(=O)CCC(NC(=O)[C@@H]1CCC2CCCC[C@H](NC(=O)c3cc4cc(C(F)(F)P(=O)(O)O)ccc4o3)C(=O)N21)C(=O)NCc1ccccc1` (some centres unmarked) [Example 65], for which the IC50 is > 10 µM in test [1] (setting [6]) and > 100 µM in test [3] (setting [5]).

Consider `CCCCCCCCCCCCCCCCNC(=O)C(CCC(N)=O)NC(=O)[C@@H]1CCC2CCCC[C@H](NC(=O)c3cc4cc(C(F)(F)P(=O)(O)O)ccc4[nH]3)C(=O)N21` (some centres unmarked) [Example 66], for which the IC50 is < 1 µM in test [1] and > 100 µM in test [3] (setting [5]). `CCCCCCCCCCCCCCCCNC(=O)C(CCC(N)=O)NC(=O)[C@@H]1CCC2CCCC[C@H](NC(=O)c3cc4cc(C(F)(F)P(=O)(OCOC(=O)C(C)(C)C)OCOC(=O)C(C)(C)C)ccc4[nH]3)C(=O)N21` (some centres unmarked) [Example 67]: in test [3] (setting [8]), the IC50 was > 100 µM. Same read-out and setting: to `CC(C)OC(=O)OCOP(=O)(OCOC(=O)OC(C)C)C(F)(F)c1ccc2[nH]c(C(=O)N[C@H]3CCCCC4CC[C@@H](C(=O)NC(CCC(N)=O)C(=O)NCc5ccccc5)N4C3=O)cc2c1` (some centres unmarked) [Example 68] belongs > 100 µM. As to `CC(C)OC(=O)OCOP(=O)(OCOC(=O)OC(C)C)C(F)(F)c1ccc2[nH]c(C(=O)N[C@H]3CCCCC4CC[C@@H](C(=O)NCCc5cn[nH]c5)N4C3=O)cc2c1` (some centres unmarked) [Example 69], in test [3] (setting [8]), the IC50 was > 100 µM.

Molecule `CC(C)C[C@H](NC(=O)[C@H](Cc1ccc(OP(=O)(O)O)cc1)NC(=O)CNC(=O)CCNC(=O)CCNC(=O)c1ccc2c(c1)C(=O)OC21c2ccc(O)cc2Oc2cc(O)ccc21)C(=O)N1CCC[C@H]1C(=O)N[C@@H](CCC(N)=O)C(=O)N[C@H](C(=O)N[C@H](C(N)=O)C(C)C)[C@@H](C)O` [STT2 peptide, 5-Fam-beta-Ala-beta-Ala-Gly-phospho-Tyr-Leu-Pro-Gln-Thr-Val-amide, reference compound] ({5FAM-βAla-βAla}-G[pY]LPQTV-NH2) returned a Kd in test [1] of 0.047 µM.
